Consider three molecules from paper PMC12693327, “SERAAK2 as a Serotonin Receptor Ligand: Structural and Pharmacological In Vitro and In Vivo Evaluation” (Molecules, 2025).

pIC50: −log10 of the molar value.

The test system of one data set is SH-SY5Y cells. Briefly: MTS cytotoxicity assay in SH-SY5Y cells. As to conditions: 30 µM, 72 h. In kind it is cell-based, human. The procedure: The cytotoxic potential of SERAAK2 was evaluated in two human-derived cell lines chosen for their physiological relevance: HepG2 (hepatocellular carcinoma) and SH-SY5Y (neuroblastoma). […] It is particularly noteworthy that the use of the SERAAK2 compound at a concentration of 30 µM reduces the number of viable cells below the level of the positive control (doxorubicin) at the same concentration (Table 3). […] Under the experimental conditions used, after 72 h of incubation, a fraction of doxorubicin-treated cells remains metabolically active and generates a low signal in the MTS assay. The enhanced signal reduction observed in the MTS assay for the tested compound, compared to doxorubicin, indicates strong cytotoxic activity leading to necrosis of the entire cell population.
An assessment of the cytotoxic potential of SERAAK2 was carried out utilizing the colorimetric MTS assay. This investigation was executed on both HepG2 and SH-SY5Y cell lines, adhering to an identical procedure. The cell lines, sourced from the American Type Culture Collection (Manassas, VA, USA), were cultured under standard conditions (5% CO2, 37 °C) in DMEM/F12 medium (#31330-038, ThermoFisher Scientific, Waltham, MA, USA). The medium was supplemented with 10% Fetal Bovine Serum (FBS, #A5256801, ThermoFisher Scientific) and a Penicillin–Streptomycin solution (#15140-122, ThermoFisher Scientific) until their use in the study. Cells within passage numbers 15 to 25 were plated in 96-well plates at a density of 5000 cells per well in 200 μL of medium and allowed to adhere during a 24 h incubation at 37 °C with 5% CO2. […] The plates were then subsequently returned to the 37 °C incubator, after which absorbance was recorded with a Spark microplate reader; this measurement occurred after 1 h for the HepG2 line and 3 h for the SH-SY5Y line. The ultimate cell viability percentage was determined by comparing results to the control wells, which represented 100% viability, and the wells treated with 10 μM doxorubicin, which were defined as 0% viability. […]
Background: Formazan colour is commonly taken as a measure of viable cells.

On the set-up of data set [1]: method as in PMID 40430337. As to conditions: cited from earlier work.
Data set [2] concerns mice. Also on record: method as in PMID 40430337. Particulars: 30 mg/kg; cited from earlier work.
Data set [3] has as its system mice. Also on record: method as in PMID 40430337. As to conditions: 30 mg/kg; cited from earlier work. This is another data set of the same source.
The test system of data set [4] is mice. Also on record: method as in PMID 40430337. Particulars: 30 mg/kg; cited from earlier work. The source holds these as a separate data set.
For a further data set, the target named is CYP2D6 (Homo sapiens, UniProt P10635). More on the design: purchased Promega; method as in PMID 40430337. As to conditions: cited from earlier work.
Chain of CYP2D6 (P10635 whole entry): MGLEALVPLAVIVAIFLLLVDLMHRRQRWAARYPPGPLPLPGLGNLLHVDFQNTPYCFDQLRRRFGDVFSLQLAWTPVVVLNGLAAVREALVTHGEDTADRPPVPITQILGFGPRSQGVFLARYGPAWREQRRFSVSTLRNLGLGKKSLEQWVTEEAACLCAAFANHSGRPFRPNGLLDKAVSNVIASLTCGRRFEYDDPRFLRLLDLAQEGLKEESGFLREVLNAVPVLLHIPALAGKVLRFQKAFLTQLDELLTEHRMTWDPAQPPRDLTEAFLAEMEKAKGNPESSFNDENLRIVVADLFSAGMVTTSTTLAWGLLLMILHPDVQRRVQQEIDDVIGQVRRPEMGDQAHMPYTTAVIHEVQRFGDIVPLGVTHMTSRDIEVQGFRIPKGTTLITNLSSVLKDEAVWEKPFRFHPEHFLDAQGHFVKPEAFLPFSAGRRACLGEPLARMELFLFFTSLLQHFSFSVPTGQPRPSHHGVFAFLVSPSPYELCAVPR
Data set [5] relates to mice. Also on record: method as in PMID 40430337. Particulars: 30–60 mg/kg; cited from earlier work.
The next data set deals with T1, CYP3A4 (Homo sapiens, UniProt P08684).
T1 construct: purchased Promega
T1 sequence (P08684 whole entry): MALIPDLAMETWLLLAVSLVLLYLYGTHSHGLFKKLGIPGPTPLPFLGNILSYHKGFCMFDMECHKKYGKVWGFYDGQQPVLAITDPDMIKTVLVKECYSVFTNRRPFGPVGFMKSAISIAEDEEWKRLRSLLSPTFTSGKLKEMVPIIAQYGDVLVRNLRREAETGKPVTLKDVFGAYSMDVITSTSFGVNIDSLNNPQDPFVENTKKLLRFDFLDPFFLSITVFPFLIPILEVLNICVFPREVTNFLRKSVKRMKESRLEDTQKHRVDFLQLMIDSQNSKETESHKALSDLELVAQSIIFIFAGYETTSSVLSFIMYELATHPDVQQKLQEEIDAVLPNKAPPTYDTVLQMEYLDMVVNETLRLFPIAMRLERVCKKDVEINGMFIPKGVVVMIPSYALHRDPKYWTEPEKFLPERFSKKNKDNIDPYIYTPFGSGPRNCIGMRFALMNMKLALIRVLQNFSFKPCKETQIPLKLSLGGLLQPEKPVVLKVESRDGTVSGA
Also on record: method as in PMID 40430337. Particulars: cited from earlier work.

Data set [6] deals with mice. More on the design: method as in PMID 40430337. Particulars: 30–60 mg/kg, rotarod and chimney; cited from earlier work.
The test system of data set [7] is mice. Briefly: Amphetamine-induced hyperactivity. Particulars: amphetamine 3 mg/kg, vs saline-treated group, p < 0.05. The class given is in vivo. The procedure: The investigated compound (SER2AAK2) was bought from Enamine (purity over 95%) and in all tests was administered intraperitoneally (i.p.), spread in a drop of Tween 80, and diluted with an aqueous solution of 0.5% methylcellulose (tylose) and injected 60 min before the tests in a volume of 10 mL/kg. Control groups received tylose injections of the same volume and via the same route of administration.
Locomotor activity of the mice was assessed using the Opto-Varimex-4 Auto-Track system (Columbus Instruments, OH, USA). Each mouse was placed individually in a testing cage for 25 min—5 min for acclimatization, followed by 20 min of activity recording. (6a) The total distance traveled (in centimeters) was measured. Cages were cleaned with 10% ethanol between sessions.

For the molecule `COc1cccc2c1C(=O)c1c(O)c3c(c(O)c1C2=O)C[C@@](O)(C(=O)CO)C[C@@H]3O[C@H]1C[C@H](N)[C@H](O)[C@H](C)O1` [DOX, Doxorubicin, reference compound], the “Percentage Reduction in the Number of Viable SH-SY5Y Cells [Mean ± SEM]” value in the data set with SH-SY5Y cells is 102 ± 1%.

One may read the pIC50 as −log10 of the IC50, conventionally taken in molar units. For `OC(COC(c1ccccc1)c1ccccc1)CN1CCN(C(c2ccccc2)c2ccccc2)CC1` (stereo not shown) [SERAAK1], the “Pe (PAMPA)” value in data set [1] was < 0.01 ×10⁻⁶ cm/s. Moreover, the amphetamine-induced hyperactivity entry with mice [2] is “↓ hyperactivity (30 mg/kg)”. Also, the “Elevated plus maze (EPM), open arm time and entries” value in the data set with mice [3] is “↑ open arm time and entries (30 mg/kg)—anxiolytic effect”. Moreover, the “Forced swim test (FST), immobility” value in the data set with mice [4] is “↓ immobility (30 mg/kg)—antidepressant-like effect connected with serotonergic modulation”. Also, the pIC50 at CYP2D6 is 6.14. The Spontaneous locomotor activity entry with mice [5] is recorded as “no change (30–60 mg/kg)”. At CYP3A4, the “CYP3A4 induction (increase of activity)” value was 3.5 fold. For the same molecule, the “Motor coordination (rotarod, chimney)” value in the data set with mice [6] is given as “no impairment (30–60 mg/kg)—stable motor profile”.

Take `CC(N)Cc1ccccc1` (stereo not shown) [amphetamine, reference compound]: the “locomotor activity after amphetamine alone” value in the data set with mice [7] is reported as “significantly increased the locomotor activity”.
